Experimental data taken from EP1935984A1 (priority 2006, dated 2008).

How the values were obtained:
[1] = tested on: Bacillus subtilis wild-type strain PB2; assay: microbe, parasite or virus in culture
Protocol: (§1) To get a better understanding of the global response of Bacillus subtilis enduring sorbic acid stress, DNA microarray analysis was performed. We studied changes in gene expression after 10, 20, 30, 40 and 50 min of exposure to potassium sorbate in comparison to an untreated control. […] Changes in gene expression were studied using spotted oligo-arrays. The microarray consisted of 4100 gene specific 65-mer oligonucleotides, representing 4,100 of the 4,106 possible ORFs in B. subtilis (as reported for the B. subtilis genome at http://genolist.pasteur.fr/SubtiList/), spotted in duplo onto glass slides. Total RNA, isolated from the sorbate stressed and control cultures of each time-point, was labelled with the fluorescent dyes Cy5-dUTP and Cy3-dUTP respectively and hybridized onto the same slide. Biologically independent experiments were performed in duplo. […] Since the variation in differential expression measurements depends on the intensity (smaller variation at higher- and larger variation at lower fluorescence intensity levels), we applied an intensity-dependent method to identify differentially expressed genes (Yang et al., (2002)a, Genome Biol., 3: 0062). […] According to the KEGG (Kyoto Encyclopedia of Genes and Genomes, Kaneshisa M, et al (2006), Nucl. Acid Res., 34:354-357) database, this enzyme may also be involved in the degradation and biosynthesis of various metabolites, like arginine, proline, tyrosine, tryptophan and pyrine. […] YhcA is a possible multi-drug efflux pump and comprises of thirteen putative trans-membrane domains. YhcA is both a member of the drug resistance transporter EmrB/QacA subfamily and the major facilitator superfamily. […] We followed the growth by measuring the increase in OD600 and calculated growth inhibition percentages (Table 1). […] Table 1. Susceptibility of a selected mutant strain to sorbic acid stress.
(§2) All Bacillus subtilis strains used in this study are derivatives of the laboratory wild-type strain PB2 (kindly provided by C.W. Price) and are listed in Table 4. Mutant strains ATB002 (ureC), ATB007 (sigL) and ATB008 (sigM) were obtained by transformation of strain PB2 with chromosomal DNA of strains SF168U (Cruz-Ramos H., et al., (1997) J. Bacteriol., 179:3371-3373), QB5505 (Debarbouille M., et al., (1991), Proc. Natl. Acad. Sci., 181: 2059-2066) and AM1447 (Thackray PD and Moir A, (2003), J. Bacteriol., 185: 3491-3498), respectively. To obtain mutant strains ATB001 (fabHB), ATB003 (ycsF), ATB004 (yhcA), ATB005 (yhcB) and ATB006 (yxkJ), the wild-type strain PB2 was transformed with chromosomal DNA of strains YHFBd, YCSFd, YHCAd, YHCBd and YXKJd, respectively, which were all received from the Japanese Consortium for Functional Analysis of the B. subtilis Genome (JAFAN, http://bacillus.genome.ad.jp/). Transformants were selected on LB (Luria-Bertani) agar plates containing appropriate antibiotics, after overnight incubation at 37°C. Depending on the strain, the used antibiotics were chloramphenicol (6 µg/ml), erythromycin (0.5 µg/ml), spectinomycin (100 µg/ml) or kanamycin (10 µg/ml). Isolation of chromosomal DNA was performed according to Ward JB. (Ward JB et al, (1973), J. Bacteriol., 116: 719-726) and transformations were carried out as described by Kunst et al (Kunst F. et al, (1995) J. Bacteriol., 177: 2403-2407).

[2] = tested on: mutant strain ATB004 (yhcA); assay: microbe, parasite or virus in culture; settings: Bacillus subtilis, pH 6.4, read-out: GI% (growth inhibition)
Protocol: as §1, §2

wild type B.subtilis PB2 = settings: concentrations of 30mM and 40mM KSorbate
Protocol: On MB#1 first a test screen was performed on 15mM KSorbate.
The mutants and the wild type PB2 as a control were grown over night in liquid LB-media, pH6.4, 80mM MOPS and 100µg/ml spectinomycin (for the mutants only) at 37°C and 250rpm. The cultures were diluted to an OD600 of 0.2-0.25, grown to OD600=0.5 and again diluted to an OD600=0.020-0.025. At log-phase (OD600=0.2) a 200µl sample was taken, 10°fold to 10^-6fold diluted and ~5µl plated on the same LB-plates, pH6.4, 80mM MOPS containing 0mM, 15mM, 30mM and 40mM KSorbate. After 24h of incubation at 37°C pictures of the plates were taken.

[3] = pH 6.4, read-out: GI% (growth inhibition)

With `C/C=C/C=C/C(=O)[O-].[K+]` [Potassium sorbate, potassium sorbate] the inhibition at 3000 µM [1, 3] was 26.1%, the inhibition at 6000 µM [1, 3] was 40.7% and the inhibition at 15000 µM [1, 3] was 63.6%. It also gave an inhibition at 30000 µM [1, 3] of 73.2%, an inhibition of growth at 3000 µM ([1]; read-out: reduction in the growth rate) of 26% and an inhibition at 3000 µM [2] of 45.1%. The inhibition at 6000 µM [2] was 50%, the inhibition at 15000 µM [2] was 72% and the inhibition at 30000 µM [2] was 79.3%. The “growth of the wild type on sorbate plates” value (wild type B.subtilis PB2) was “reduce the growth of the wild type”.
